Results on 16 compounds are retold here after US20100278835A1, “NOVEL COMPOUNDS 660” (ASTRAZENECA UK LIMITED, priority 2009, published 2010).

One data set is described as follows: Thermodynamic solubility. It is filed as physicochemical. As for the experimental part: A known amount of the test compound was stirred in 0.1M phosphate buffer pH 7.4 at constant temperature (25° C.) for 24 h. The supernatant was then separated from un-dissolved material by double centrifugation, and subsequently analysed and quantified against a standard of known concentration in DMSO using generic HPLC-UV methodology coupled with mass spectral peak identification. Data are also included for a reference quinazolin-2,4-dione derivative disclosed in WO 03/053344.

Another data set concerns RSV RSS strain. In words: ELISA assay of antiviral activity against RSV (reduction in RSV protein expression). Conditions: Hep-2 cells infected with RSV RSS strain, multiplicity of infection 0.02, 3 days, concentration required to inhibit RSV protein expression by 50%. The class given is cell-based. As for the experimental part:
The antiviral activity of these compounds against RSV was determined in an ELISA assay. […] ELISA assays were set up by seeding 96-well plates with 5×10^3 Hep-2 cells per well in 100 μl DMEM containing 10% FBS for 24 h. Compound dilutions were prepared in 0.5% DMSO and 50 μl/well was added to the assay plates, the plates were incubated at 37° C. in 5% CO2 for one hour. Cells were infected with 50 μl/well RSV RSS strain at a multiplicity of infection of 0.02 and were incubated at 37° C. in 5% CO2 for 3 days. Cells were then fixed and permeabilised with 75%/25% methanol acetone and blocked with 2% Marvel™, 0.05% Tween for one hour. Plates were then incubated in the presence of a 1:4000 dilution of […] polyclonal antibody (Millipore, AB1128) followed by a 1:1000 dilution of rabbit anti-goat, horseradish peroxidase (DAKO, PO449) labelled secondary antibody. The plates were developed with O-phenylenediamine in the presence of hydrogen peroxide. The antiviral activity of the compounds is presented as an IC50, the concentration required to inhibit RSV protein expression by 50%.

The mark [1] stands for this setting: aqueous buffer, thermodynamic from solid, 0.1M phosphate buffer pH 7.4, 25° C., 24 h, HPLC-UV.
[2] abbreviates: human respiratory syncytial virus, 72 h.

≈ marks a conversion by molar mass, not a printed value. Some results are limits rather than exact numbers.

Take `COCCn1c(=O)c2ccccc2n(Cc2nc3cc(CN)ccc3n2CCC(C)C)c1=O` [reference compound]: the solubility (thermodynamic) at 24 h in the data set “Thermodynamic solubility” (setting [1]) was found to be 36 µM (≈ 16.2 µg/mL). For `CC(C)CCn1c(CN2C(=O)N(C)Cc3ccccc32)nc2cc(CN)ccc21` [Example 5, 1-[[5-(aminomethyl)-1-isopentyl-benzimidazol-2-yl]methyl]-3-methyl-4H-quinazolin-2-one], the IC50 in the data set on RSV RSS strain (setting [2]) amounted to 8.9 nM. Besides, the solubility (thermodynamic) at 24 h in “Thermodynamic solubility” (setting [1]) is 2290 µM (≈ 897 µg/mL). The like results for `Cc1cc2c(cc1CN)nc(CN1C(=O)N(C3CC3)Cc3ccccc31)n2CCC(C)C` [Example 46, 1-[[5-(Aminomethyl)-1-isopentyl-6-methyl-benzimidazol-2-yl]methyl]-3-cyclopropyl-4H-quinazolin-2-one] were, in that order, 1.5 nM and 831 µM (≈ 359 µg/mL). The compound `CC(C)CCn1c(Cn2c(=O)n(C3CC3)c(=O)c3ccccc32)nc2cc(CN)ccc21` [reference compound] had a solubility (thermodynamic) at 24 h in the data set “Thermodynamic solubility” (setting [1]) of 70 µM (≈ 30.2 µg/mL). `NCc1ccc2c(c1)nc(CN1C(=O)N(C3CC3)Cc3ccccc31)n2CCCC(F)(F)F` [Example 28, 1-[[5-(Aminomethyl)-1-(4,4,4-trifluorobutyl)benzimidazol-2-yl]methyl]-3-cyclopropyl-4H-quinazolin-2-one]: the midpoint of inhibition in the data set on RSV RSS strain (setting [2]), the IC50, lay at 0.5 nM. The same compound gave a thermodynamic solubility at 24 h in the data set “Thermodynamic solubility” (setting [1]) of 289 µM (≈ 132 µg/mL). Take `NCc1ccc2c(c1)nc(Cn1c(=O)n(C3CC3)c(=O)c3ccccc31)n2CCCC(F)(F)F` [reference compound]: the thermodynamic solubility at 24 h in “Thermodynamic solubility” (setting [1]) turned out to be 90 µM (≈ 42.4 µg/mL). For `CC(C)CCn1c(CN2C(=O)N(C3CC3)Cc3ccccc32)nc2cc(C(=N)N)ccc21` [Example 35, 2-[(3-cyclopropyl-2-oxo-4H-quinazolin-1-yl)methyl]-1-isopentyl-benzimidazole-5-carboxamidine], in the data set on RSV RSS strain (setting [2]), the IC50 worked out at 3.2 nM. The same compound returned a thermodynamic solubility at 24 h in “Thermodynamic solubility” (setting [1]) of 808 µM (≈ 348 µg/mL).

In the data set with RSV RSS strain (setting [2]), `CC(C)CCn1c(CN2C(=O)N(C3CC3)C(C)c3ccccc32)nc2cc(CN)ccc21` (stereo not shown) [Example 20, 1-[[5-(aminomethyl)-1-isopentyl-benzimidazol-2-yl]methyl]-3-cyclopropyl-4-methyl-4H-quinazolin-2-one] returned an IC50 of 9.4 nM. Moreover, the solubility (thermodynamic) at 24 h in the data set “Thermodynamic solubility” (setting [1]) came to 654 µM (≈ 282 µg/mL).

`CC(C)CCn1c(CN2C(=O)N(C3CC3)Cc3ccccc32)nc2cc(CN)ccc21` [Example 7, 1-[[5-(Aminomethyl)-1-isopentyl-benzimidazol-2-yl]methyl]-3-cyclopropyl-4H-quinazolin-2-one] gave an IC50 in the data set with RSV RSS strain (setting [2]) of 1.7 nM. Further, in “Thermodynamic solubility” (setting [1]), the thermodynamic solubility at 24 h amounted to 2300 µM (≈ 960 µg/mL).

In the data set on RSV RSS strain (setting [2]), `COCCN1Cc2ccccc2N(Cc2nc3cc(CN)ccc3n2CCC(C)C)C1=O` [Example 13, 1-[[5-(aminomethyl)-1-isopentyl-benzimidazol-2-yl]methyl]-3-(2-methoxyethyl)-4H-quinazolin-2-one] yielded an IC50 of 101 nM. The thermodynamic solubility at 24 h in the data set “Thermodynamic solubility” (setting [1]) was 1560 µM (≈ 679 µg/mL). `CC(C)CCn1c(Cn2c(=O)n(C)c(=O)c3ccccc32)nc2cc(CN)ccc21` [reference compound] yielded a thermodynamic solubility at 24 h in the data set “Thermodynamic solubility” (setting [1]) of 16 µM (≈ 6.49 µg/mL). With “1-[[5-(aminomethyl)-1-isopentyl-benzimidazol-2-yl]methyl]-3-cyclopropyl-4,4-dimethyl-quinazolin-2-one [Example 21]”, the IC50 with RSV RSS strain was found to be 57 nM. The thermodynamic solubility at 24 h in “Thermodynamic solubility” (pH 7.4) is 1050 µM. As to `CC(C)CCn1c(CN2C(=O)N(C3CC3)Cc3c(F)cccc32)nc2cc(CN)ccc21` [Example 23, 1-[[5-(aminomethyl)-1-isopentyl-benzimidazol-2-yl]methyl]-3-cyclopropyl-5-fluoro-4H-quinazolin-2-one], the IC50 in the data set with RSV RSS strain (setting [2]) came out at 7.7 nM. Moreover, the thermodynamic solubility at 24 h in “Thermodynamic solubility” (setting [1]) is 242 µM (≈ 105 µg/mL). In the data set on RSV RSS strain (setting [2]), `CC(C)CCN1Cc2ccccc2N(Cc2nc3ccccc3n2CCC(C)C)C1=O` [Example 2, 3-isopentyl-1-[(1-isopentylbenzimidazol-2-yl)methyl]-4H-quinazolin-2-one] displayed an IC50 greater than 1000 nM. On the same count and under the same terms, under `CC(C)CCn1c(CN2C(=O)N(C3CC3)C(C)(C)c3ccccc32)nc2cc(C(=N)N)ccc21` [Example 37, 2-[(3-cyclopropyl-4,4-dimethyl-2-oxo-quinazolin-1-yl)methyl]-1-isopentyl-benzimidazole-5-carboxamidine] stands 42 nM. In the data set with RSV RSS strain, “1-[[5-[(3-aminopropylamino)methyl]-1-isopentyl-benzimidazol-2-yl]methyl]-3-(2-methoxyethyl)-4H-quinazolin-2-one [Example 33]” showed an IC50 of 243 nM.
